Ends that are not written are not given here.
System: AMPKα1 wild-type (WT) and knockout (KO) mice
Experiment: Survival analysis up to 7 days after hemorrhagic shock
Assay type: in vivo
Conditions: 100 μg/kg intra-arterially at resuscitation, subcutaneously at 24 h and 48 h, compared to vehicle treatment
Method: Preparation of PEGylated humanin-G and survival analysis. In separate groups of mice survival studies were conducted. For these studies, we generated a longer-acting humanin-G by covalent conjugation of polyethylene glycol (PEG). Briefly, humanin-G was conjugated (1:1 molar ratio) to generate a non-cleavable PEGylated humanin-G. Humanin-G was dissolved in phosphate-buffered saline, pH 7.4, with 5 mM EDTA and mixed at room temperature with an equal volume of DMSO containing PEG-maleimide and left overnight (26). The product, PEGylated humanin-G (PEG10 kDa) was purified by size-exclusion chromatography with a 50 mM ammonium acetate buffer. Mice were subjected to hemorrhagic shock as described above. Mice received PEGylated humanin-G (100 μg/kg, intra-arterially) as a single dose at 90 minutes after blood removal at the time of resuscitation. Three hours after resuscitation, the femoral artery was occluded, and the skin incision was closed in layers. Mice were then allowed to awaken from anesthesia. Mice then received a second and a third dose of PEGylated humanin-G (100 μg/kg, subcutaneously) at 24 hours and 48 hours thereafter. Mice also received further fluid resuscitation (0.5 mL of Lactated Ringer's solution subcutaneously) at 6 hours and 24 hours following hemorrhagic shock. […] Mice were then monitored for survival for 7 days. […]

Question: Which survival does the source give for “PEGylated humanin-G: non-cleavable PEGylated humanin-G, humanin-G conjugated 1:1 molar ratio with PEG-maleimide (PEG10 kDa) (MAPRGFSCLLLLTGEIDLPVKRRA; not fully specified (residue 8); also: PEG 10 kDa maleimide conjugate, attachment site not given here; UniProt Q8IVG9 1-24, looked up, variant S14G)” here?
Answer: significantly ameliorated

Source: patent US20260166121A1, “COMPOSITIONS AND METHODS FOR THE TREATMENT OF HEMORRHAGIC SHOCK” (Children's Hospital Medical Center, priority 2022, published 2026)
